These molecules were tested against T1, human PAH with the R408W mutation (Homo sapiens, UniProt P00439, R408W) (assay: Cell Based Phenylalanine Flux Assay). Settings: A375 cells expressing R408W PAH; 24 hrs with compound, then 20 µM sepiapterin and 800 µM 13C9,15N-Phenylalanine for 4 hours; 13C-Tyrosine by LC-MS; average where tested multiple times; read-out: AC50.
T1 construct: expressed in transfected cells
T1 sequence (P00439 1-452 R408W): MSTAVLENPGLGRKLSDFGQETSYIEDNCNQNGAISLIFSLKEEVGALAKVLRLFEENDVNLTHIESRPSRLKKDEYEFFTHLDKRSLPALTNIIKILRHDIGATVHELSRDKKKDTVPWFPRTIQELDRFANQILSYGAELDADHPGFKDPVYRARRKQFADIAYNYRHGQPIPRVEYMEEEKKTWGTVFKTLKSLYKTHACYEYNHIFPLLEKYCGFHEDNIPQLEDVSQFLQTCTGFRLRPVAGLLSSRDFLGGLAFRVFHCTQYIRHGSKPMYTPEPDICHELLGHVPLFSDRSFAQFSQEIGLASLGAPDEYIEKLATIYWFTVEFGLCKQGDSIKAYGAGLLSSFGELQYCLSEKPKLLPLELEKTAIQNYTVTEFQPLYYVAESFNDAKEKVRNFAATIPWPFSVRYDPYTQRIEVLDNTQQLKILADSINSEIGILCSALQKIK
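Further: after compound treatment, cells received sepiapterin plus isotope-labelled Phenylalanine for 4 hours, then labelled Tyrosine in the medium was quantified, 10-point 2-fold dilution series run in duplicate.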

Row | AC50 [µM] | SMILES
1 | 1 to 5 | Cc1nc(C(C)O)oc1C(=O)N1CCc2[nH]cnc2C1c1cc2ccccn2n1 [4S enantiomer of (1S)-1-14-methyl-5-[4-{pyrazolo[1,5-a]pyrid]
2 | 1 to 5 | O=C(c1nnc(C2CC2)o1)N1CCc2[nH]cnc2C1c1cc2ccc(C(F)(F)F)cn2n1 (stereo not drawn)
3 | 1 to 5 | Cc1nc(C(=O)N2CCc3[nH]cnc3C2c2cc3ccccn3n2)n(C)n1 (stereo not drawn)
4 | > 5 | Cn1ccc(-c2nnc(C(=O)N3CCc4[nH]cnc4C3c3cc4c(OC(F)F)cccn4n3)o2)n1 (stereo not drawn)
5 | 1 to 5 | O=C(CCc1nccs1)N1CCc2[nH]cnc2C1c1cc2ccccn2n1 (stereo not drawn)
6 | 1 to 5 | Cn1nc(C(C)(C)C)cc1C(=O)N1CCc2[nH]cnc2C1c1cc2ccccn2n1 (stereo not drawn)

The next lines start with the molecule.

Row | SMILES | AC50 [µM]
7 | Cc1cccn2nc([C@H]3c4nc[nH]c4CCN3C(=O)c3nnc(N4CCOCC4)o3)cc12 (single isomer, unassigned) | > 5
8 | CN(C)C(=O)c1nnc(N2CCc3[nH]cnc3C2c2cc3c(C(F)F)cccn3n2)o1 (stereo not drawn) | 1 to 5
9 | Cc1cccn2nc(C3c4nc[nH]c4CCN3c3nnc(N4CCOCC4)o3)cc12 (stereo not drawn) | 1 to 5
10 | O=C(c1cnc(-c2cnccn2)o1)N1CCc2[nH]cnc2C1c1cc2ccccn2n1 (single isomer, unassigned) | 1 to 5
11 | O=C(c1ocnc1C1CC1)N1CCc2[nH]cnc2C1c1cc2cccc(C(F)(F)F)n2n1 (stereo not drawn) | 1 to 5
12 | O=C(c1cn[nH]c1Cl)N1CCc2[nH]cnc2C1c1cc2ccccn2n1 (stereo not drawn) | 1 to 5

Same assay, conditions: A375 cells expressing human PAH R408W; 24 hrs compound incubation; 13C-Tyrosine by LC-MS; average where tested multiple times; read-out: AC50

Row | AC50 [µM] | SMILES
13 | > 5 | O=C(c1nc2ccccc2s1)N1CCc2[nH]cnc2[C@@H]1c1cc2ccccn2n1 [Example 2001, (R)-benzo[d]thiazol-2-yl(4-(pyrazolo[1,5-a]pyridin-2-yl)-1,4,6,7-tetrahydro-5H-imidazo[4,5-c]pyridin-5-yl)methanone]
14 | 1 to 5 | O=C(c1cnn(CC(F)(F)F)c1C(F)F)N1CCc2[nH]cnc2[C@H]1c1cc2ccccn2n1 [Example 2368, (S)-(5-(difluoromethyl)-1-(2,2,2-trifluoroethyl)-1H-pyrazol-4-yl)(4-(pyrazolo[1,5-a]pyridin-2-yl)-6,7-dihydro-1H-imidazo[4,5-c]pyridin-5(4H)-yl)methanone]
15 | 0.5 to 1 | Cn1cc(-c2nnc(C(=O)N3CCc4[nH]cnc4[C@H]3c3cc4c(C5CC5)cccn4n3)o2)cn1 [Example 1876, (S)-(4-(4-cyclopropylpyrazolo[1,5-a]pyridin-2-yl)-1,4,6,7-tetrahydro-5H-imidazo[4,5-c]pyridin-5-yl)(5-(1-methyl-1H-pyrazol-4-yl)-1,3,4-oxadiazol-2-yl)methanone]
16 | 0.5 to 1 | Cc1cccn2nc([C@@H]3c4nc[nH]c4CCN3C(=O)c3ncco3)cc12 [Example 1989, (S)-(4-(4-methylpyrazolo[1,5-a]pyridin-2-yl)-1,4,6,7-tetrahydro-5H-imidazo[4,5-c]pyridin-5-yl)(oxazol-2-yl)methanone]

More lines, now with the values behind:

Row | SMILES | AC50 [µM]
17 | Cc1cccn2nc([C@H]3c4nc[nH]c4CCN3c3nnc(-c4ncccc4F)o3)cc12 [Example 2340, (R)-2-(3-fluoropyridin-2-yl)-5-(4-(4-methylpyrazolo[1,5-a]pyridin-2-yl)-1,4,6,7-tetrahydro-5H-imidazo[4,5-c]pyridin-5-yl)-1,3,4-oxadiazole] | > 5
18 | Cn1cc(-c2nc(C3CC3)c(C(=O)N3CCc4[nH]cnc4[C@@H]3c3cc4c(F)cccn4n3)o2)cn1 [Example 2072, (R)-(4-cyclopropyl-2-(1-methyl-1H-pyrazol-4-yl)oxazol-5-yl)(4-(4-fluoropyrazolo[1,5-a]pyridin-2-yl)-1,4,6,7-tetrahydro-5H-imidazo[4,5-c]pyridin-5-yl)methanone] | > 5
19 | Cc1cccn2nc([C@@H]3c4nc[nH]c4CCN3c3nnc(C(C)C)o3)cc12 [Example 2303, (S)-2-isopropyl-5-(4-(4-methylpyrazolo[1,5-a]pyridin-2-yl)-1,4,6,7-tetrahydro-5H-imidazo[4,5-c]pyridin-5-yl)-1,3,4-oxadiazole] | < 0.5
20 | Fc1cccc(F)c1-c1nnc(N2CCc3[nH]cnc3[C@@H]2c2cc3cccc(C(F)(F)F)n3n2)o1 [Example 2132, (R)-2-(2,6-difluorophenyl)-5-(4-(7-(trifluoromethyl)pyrazolo[1,5-a]pyridin-2-yl)-1,4,6,7-tetrahydro-5H-imidazo[4,5-c]pyridin-5-yl)-1,3,4-oxadiazole] | 1 to 5
21 | CC(C)c1cccn2nc([C@@H]3c4nc[nH]c4CCN3c3ncc(C(F)(F)F)cn3)cc12 [Example 2185, (S)-4-(4-isopropylpyrazolo[1,5-a]pyridin-2-yl)-5-(5-(trifluoromethyl)pyrimidin-2-yl)-4,5,6,7-tetrahydro-1H-imidazo[4,5-c]pyridine] | < 0.5
22 | O=C(c1nnc(-c2cncnc2)o1)N1CCc2[nH]cnc2[C@H]1c1cc2c(F)cccn2n1 [Example 1974, (S)-(4-(4-fluoropyrazolo[1,5-a]pyridin-2-yl)-1,4,6,7-tetrahydro-5H-imidazo[4,5-c]pyridin-5-yl)(5-(pyrimidin-5-yl)-1,3,4-oxadiazol-2-yl)methanone] | 0.5 to 1

Same assay, conditions: A375 cells expressing human R408W PAH; 24 hrs compound incubation; 13C-Tyrosine by LC-MS; average where tested multiple times; read-out: AC50

Row | AC50 [µM] | SMILES
23 | 1 to 5 | Cc1cccc(-c2nnc(C(=O)N3CCc4[nH]cnc4[C@@H]3c3cc4cccc(F)n4n3)o2)n1 [Example 1497, (R)-(4-(7-fluoropyrazolo[1,5-a]pyridin-2-yl)-6,7-dihydro-1H-imidazo[4,5-c]pyridin-5(4H)-yl)(5-(6-methylpyridin-2-yl)-1,3,4-oxadiazol-2-yl)methanone]
24 | < 0.5 | CC1(c2nnc(C(=O)N3CCc4[nH]cnc4[C@H]3c3cc4c(F)cccn4n3)o2)CC1 [Example 1378, (S)-(4-(4-fluoropyrazolo[1,5-a]pyridin-2-yl)-6,7-dihydro-1H-imidazo[4,5-c]pyridin-5(4H)-yl)(5-(1-methylcyclopropyl)-1,3,4-oxadiazol-2-yl)methanone]
25 | 1 to 5 | Cc1cccc2cc([C@H]3c4nc[nH]c4CCN3C(=O)c3oc([C@@H](C)O)nc3C(F)F)nn12 [Example 1165, (4-(difluoromethyl)-2-((R)-1-hydroxyethyl)oxazol-5-yl)((R)-4-(7-methylpyrazolo[1,5-a]pyridin-2-yl)-6,7-dihydro-1H-imidazo[4,5-c]pyridin-5(4H)-yl)methanone]
26 | < 0.5 | Cc1c(-c2nnc(C(=O)N3CCc4[nH]cnc4[C@H]3c3cc4cccc(Cl)n4n3)o2)cnn1C [Example 1208, (S)-(4-(7-chloropyrazolo[1,5-a]pyridin-2-yl)-6,7-dihydro-1H-imidazo[4,5-c]pyridin-5(4H)-yl)(5-(1,5-dimethyl-1H-pyrazol-4-yl)-1,3,4-oxadiazol-2-yl)methanone]
27 | 0.5 to 1 | Cn1cnc(-c2nnc(C(=O)N3CCc4[nH]cnc4[C@H]3c3cc4cccc(Cl)n4n3)o2)c1 [Example 1099, (S)-(4-(7-chloropyrazolo[1,5-a]pyridin-2-yl)-6,7-dihydro-1H-imidazo[4,5-c]pyridin-5(4H)-yl)(5-(1-methyl-1H-imidazol-4-yl)-1,3,4-oxadiazol-2-yl)methanone]
28 | > 5 | Cn1ncnc1C(=O)N1CCc2[nH]cnc2[C@@H]1c1cc2c(Cl)cccn2n1 [Example 1051, (R)-(4-(4-chloropyrazolo[1,5-a]pyridin-2-yl)-6,7-dihydro-1H-imidazo[4,5-c]pyridin-5(4H)-yl)(1-methyl-1H-1,2,4-triazol-5-yl)methanone]

The remaining lines, values behind:

Row | SMILES | AC50 [µM]
29 | CN(C)Cc1ccc2c(C(=O)N3CCc4[nH]cnc4[C@@H]3c3cc4c(C(F)(F)F)cccn4n3)cnn2c1 [Example 1547, (R)-(6-((dimethylamino)methyl)pyrazolo[1,5-a]pyridin-3-yl)(4-(4-(trifluoromethyl)pyrazolo[1,5-a]pyridin-2-yl)-6,7-dihydro-1H-imidazo[4,5-c]pyridin-5(4H)-yl)methanone] | > 5
30 | O=C(c1nnc(-c2cnn(C(F)F)c2)o1)N1CCc2[nH]cnc2[C@@H]1c1cc2c(C(F)F)cccn2n1 [Example 1375, (R)-(5-(1-(difluoromethyl)-1H-pyrazol-4-yl)-1,3,4-oxadiazol-2-yl)(4-(4-(difluoromethyl)pyrazolo[1,5-a]pyridin-2-yl)-6,7-dihydro-1H-imidazo[4,5-c]pyridin-5(4H)-yl)methanone] | > 5
31 | O=C(c1nnc(-c2cnn(C(F)(F)F)c2)o1)N1CCc2[nH]cnc2[C@H]1c1cc2c(C(F)F)cccn2n1 [Example 1570, (S)-(4-(4-(difluoromethyl)pyrazolo[1,5-a]pyridin-2-yl)-6,7-dihydro-1H-imidazo[4,5-c]pyridin-5(4H)-yl)(5-(1-(trifluoromethyl)-1H-pyrazol-4-yl)-1,3,4-oxadiazol-2-yl)methanone] | < 0.5
32 | Cc1cccn2nc([C@@H]3c4nc[nH]c4CCN3C(=O)c3nnc(-c4ccc(C(F)(F)F)cn4)o3)cc12 [Example 873, (S)-(4-(4-methylpyrazolo[1,5-a]pyridin-2-yl)-6,7-dihydro-1H-imidazo[4,5-c]pyridin-5(4H)-yl)(5-(5-(trifluoromethyl)pyridin-2-yl)-1,3,4-oxadiazol-2-yl)methanone] | 0.5 to 1
33 | Cc1cccn2nc([C@@H]3c4nc[nH]c4CCN3C(=O)c3nnc(-c4cnn(S(=O)(=O)C5CC5)c4)o3)cc12 [Example 852, (S)-(5-(1-(cyclopropylsulfonyl)-1H-pyrazol-4-yl)-1,3,4-oxadiazol-2-yl)(4-(4-methylpyrazolo[1,5-a]pyridin-2-yl)-6,7-dihydro-1H-imidazo[4,5-c]pyridin-5(4H)-yl)methanone] | 0.5 to 1
